Laboratory results: US6979682B2, “Platelet-activating factor antagonist inhibition of angiogenesis and tumor growth induced by basic fibroblast” (Board of Supervisors of Louisiana State University and …, priority 2001, dated 2005)

Legend:
[1] = test system: human prostatic carcinoma cells, PC-3 (subcutaneous xenografts); test: subcutaneous PC-3 xenografts in nude mice, tumor volume; type: in vivo, NCr athymic nude mice
Description: Pathogen-free 4 to 6 week-old male NCr athymic nude mice (Taconic, Germantown, N.Y.) were housed in sterilized, filter-topped cages kept in laminar flow isolators (Forma Scientific, Marietta, Ohio), and fed autoclaved food and water ad libitum. Four animals were housed in each cage. Mice were acclimated to the vivarium for one week prior to their use in study protocols. All procedures involving the mice were performed under sterile conditions in a laminar flow hood (Forma Scientific). All studies were approved by the institutional animal care and use committee.
Human PC-3 prostate cancer cells (2×10^6 cells; American Type Culture Collection CRL-1435) were inoculated subcutanteously into the flanks of nude mice in 0.1 ml HBSS (Hank's balanced salt solution) (Life Technologies). For implantation of orthotopic 201T cells, animals were fully anesthetized in a Harvard small animal anesthesia chamber using nebulized Metafane (Pitman Moore, Inc., Washington Crossing, N.J.). […] The needle was advanced through the chest wall into the lung tissue, and the tumor cell inoculum of 2×10^6 cells was then dispersed in a final volume of 0.1 ml HBSS/Matrigel (1:1 ratio). Animals were allowed to recover from anesthesia for approximately 10 min under heat lamps to maintain body temperature. The orthotopic implantation technique is further described in Hamide et al., 1997. For tumors implanted subcutaneously, tumors were measured in a blind fashion with dial calipers, and the volume was calculated using the formula ½*π(W*L*H).
Potential anti-angiogenic and anti-tumor effects of the PAF antagonist BN-50730 were tested on human tumor xenografts in the NCr athymic nude mice. Thirty mice were implanted with subcutaneous human prostatic carcinoma cells, PC-3, at day 0, and were randomized into three groups. Mice were treated either with a placebo, 30 mg/kg BN-50730, or 60 mg/kg BN-50730 at days 2, 4, 6, 8, 10, and 12 as shown in the schedule of FIG. 2b. Animals were sacrificed at day 13, 17, 21 and 28, and the volumes of the subcutaneous tumors were measured using dial calipers and the formula ½*π(W*L*H) as described in Example 1.
In a separate experiment to determine the effects of a high dose of LAU-8080 dissolved in 2-hydroxypropyl-β-cyclodextran (instead of DMSO) on PC-3 xenografts, mice were treated as shown in FIG. 4b. Tumors were implanted subcutaneously at day 0. The mice were then divided into two groups to receive injections of either a placebo or 120 mg/kg LAU-8080 on days 1, 3, 5, 8, 10, and 12. Mice were sacrificed on days 6, 8, 11, 13, 15, 18, 20, 21, and 25; and the volumes of the tumors were measured as described above.
Tumors were implanted at day 0. The tumors were allowed to expand to 100 mm^3 before treatment was initiated as shown in the schedule in FIG. 10b. Tumor measurements were begun on day 9. Treatments of the different groups were on days 13, 15, 17, 20, 22, 24, 27, 29, and 31. Tumor measurements were taken on days 13, 16, 20, 24, 27, 31, 37, and 40.

201T cells = test: in vitro cell growth assay, [3H]thymidine incorporation, 201T; type: cell-based, human
Description: The human prostatic carcinoma cell line PC-3 was grown in RPMI 1640 (Life Technologies, Grand Island, […].) supplemented with 10% fetal bovine serum (“FBS”, Life Technologies). The human cell line 201T was established from a poorly differentiated lung adenocarcinoma, as previously described using the method of J. M. Siegfried et al., “Secretion of autocrine growth factors by cultured lung tumors: effects on neoplastic lung epithelial cells,” Lung Cancer, vol. 4, pp. 205–209 (1988). See also J. P. Hamide et al., “Percutaneous implantation of non-small cell lung carcinoma: technique and observations,” Academ. Radiolo., vol. 4, pp. 629–633 (1997). The cell line was grown in a medium conditioned for 48 hours by the cell line A549 (ATCC CCL-185) containing 1% FBS (HyClone Laboratories, Logan, Utah) as previously described in J. M. Siegfried, “Culture of primary lung tumors using medium conditioned by a lung carcinoma cell line,” J. Cell. Biochem., vol. 41, pp. 91–95 (1988). This medium is referred to as CM+1% FBS.
PC-3 cells were exposed to 0, 0.1, 1, 2.5, 5, and 10 μM BN-50730 in RPMI medium supplemented with 10% FBS and [^3H]thymidine (Amersham Life Science, Arlington Heights, Ill.). 201T cells were exposed to 0, 0.1, 1, 2.5, 5, and 10 μM BN-50730 in CM+1% FBS supplemented with [^3H]thymidine. […] PC-3 and 201T cells were also exposed to 10 μM BN-50730 for 24, 48, 72 and 144 hours, and cell growth assessed as above.

bFGF = test: Western blot analysis of cell lysates for bFGF; type: cell-based, human; conditions: 5 μM, 18 hr prior to cell harvest
Description: HUVEC, PC-3, and 201T cells were grown to 75% confluency in the appropriate growth media. BN-50730 (5 μM) or vehicle (DMSO) was added to each cell line 18 hr prior to cell harvest. Cells were washed three times in phosphate-buffered saline (“PBS”) and scraped into Lemely buffer which lacked bromophenol blue and β-mercaptoethanol (0.1 M NaCl, 0.01M Tris-HCl (pH 7.6), 0.001 M EDTA, 1 μg/ml aprotinin, 100 μg/ml phenylmethylsulfonyl flouride, 2% SDS, and 10% glycerol). The cell suspension was boiled for 10 min and then immediately stored at −20° C. Protein levels were quantified using a Bio-Rad Protein Assay (Bio-Rad, Hercules, Calif.). Protein samples (20 μg) were separated through a 10–20% denaturing gradient acrylamide gel in Tris-glycine buffer and transferred to nitrocellulose (Bio-Rad) by electrophoretic blotting. […] Primary antibody was detected using alkaline phosphatase-conjugated goat anti-mouse IgG (Bio-Rad).
The methods were as in Example 1. Lysates were analyzed from HUVEC cells grown in the presence of DMSO (Lane 1) or 5 μM BN-50730 (Lane 2); PC-3 cells grown in the presence of DMSO (Lane 3) or 5 μM BN-50730 (Lane 4); and 201T cells grown in the presence of DMSO (Lane 5) or 5 μM BN-50730 (Lane 6). […]

[2] = visual observation of side effects in treated mice; type: in vivo, NCr athymic nude mice; conditions: mice treated at any dose

With `COc1ccc(NC(=O)N2CCc3c(sc4c3C(c3ccccc3Cl)=NCc3nnc(C)n3-4)C2)cc1` [BN-50730, tetrahydro-4,7,8,10 methyl-1 (chloro-2 phenyl)-6 (methoxy-4 phenyl-carbomoyl)-9 pyrido [4′,3′-4,5] thieno [3,2-f] triazolo-1,2,4[4,3-α]diazepine-1,4] the “tumor size (volume) of subcutaneous PC-3 xenografts” value ([1]; 30 mg/kg or 60 mg/kg at days 2, 4, 6, 8, 10, 12, measured day 13, 17, 21, 28, vs placebo, p<0.001) was “significant dose-dependent reduction in tumor size”, the “tumor volume of subcutaneous PC-3 xenografts, high dose” value ([1]; 120 mg/kg in 2-hydroxypropyl-β-cyclodextran on days 1, 3, 5, 8, 10, 12, vs placebo, p=0.0001, F-test) was “significantly smaller tumors” and the “time at which tumors began to increase in size” value ([1]; 120 mg/kg on days 1, 3, 5, 8, 10, 12, PC-3 xenografts) was “did not begin to increase in size until after treatment was stopped at day 12”. For the same compound, the “tumor size, BN-50730-treated vs IFN-2a-treated mice” value ([1]; established PC-3 xenografts, 120 mg/kg vs 1,000 U, p=0.089, F-test) was “no significant difference”, the “tumor size of established PC-3 xenografts vs control animals” value ([1]; tumors expanded to 100 mm^3 before treatment, treatment days 13-31, 120 mg/kg BN-50730 and/or 1,000 U IFN-2a, p<0.001, F-test) was “significantly smaller tumors” and the “201T cell growth, time course: onset of growth inhibition” value (201T cells; 10 μM, six-day time course) was “growth inhibition was manifested after 72 hr of exposure”. The “201T cell growth, time course curves treated vs untreated” value (201T cells; 10 μM, up to 144 hr, p=0.081, F-test) was “not statistically different”, the “201T cell growth, concentration response” value (201T cells; 0.01-10 μM for four days, p<0.005 at or above 1.0 μM) was “concentration-dependent reduction in growth” and the “production of bFGF by 201T and PC-3 cells” value (bFGF) was “does not inhibit the production of bFGF”. For the same compound, the “side effects, visual observations” value [2] was “no apparent side effects”.
